{"source": "ChEMBL document CHEMBL5291721", "about": "“A preclinical secondary pharmacology resource illuminates target-adverse drug reaction associations of marketed drugs” (Nat Commun, 2023); note: assay procedure not described here", "key": {"[1]": {"target": "3',5'-cyclic-AMP phosphodiesterase 4A (Homo sapiens, UniProt P27815)", "sequence (P27815 whole entry)": "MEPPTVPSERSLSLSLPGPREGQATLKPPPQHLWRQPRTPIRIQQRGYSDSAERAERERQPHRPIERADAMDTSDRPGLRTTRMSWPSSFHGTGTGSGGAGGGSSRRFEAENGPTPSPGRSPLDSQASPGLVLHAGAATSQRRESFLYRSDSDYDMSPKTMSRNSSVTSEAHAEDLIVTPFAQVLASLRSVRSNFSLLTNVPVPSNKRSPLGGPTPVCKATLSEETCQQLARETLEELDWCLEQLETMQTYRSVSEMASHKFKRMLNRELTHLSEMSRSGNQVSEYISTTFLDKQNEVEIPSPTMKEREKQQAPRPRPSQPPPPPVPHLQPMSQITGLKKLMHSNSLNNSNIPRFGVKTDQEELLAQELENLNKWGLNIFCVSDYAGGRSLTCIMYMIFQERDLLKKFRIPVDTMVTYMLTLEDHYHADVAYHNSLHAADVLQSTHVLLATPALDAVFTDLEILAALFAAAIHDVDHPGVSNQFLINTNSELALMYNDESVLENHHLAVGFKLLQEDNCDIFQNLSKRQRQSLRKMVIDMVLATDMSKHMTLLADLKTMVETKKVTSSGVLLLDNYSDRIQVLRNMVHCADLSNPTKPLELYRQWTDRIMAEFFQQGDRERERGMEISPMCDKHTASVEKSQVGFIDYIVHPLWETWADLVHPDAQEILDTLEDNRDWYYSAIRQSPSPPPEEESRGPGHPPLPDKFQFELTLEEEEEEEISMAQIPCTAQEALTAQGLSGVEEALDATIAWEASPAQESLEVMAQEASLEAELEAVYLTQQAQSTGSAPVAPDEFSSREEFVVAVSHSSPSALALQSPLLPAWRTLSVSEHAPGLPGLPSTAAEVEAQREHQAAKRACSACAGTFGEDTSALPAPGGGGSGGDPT", "type": "functional"}, "[2]": {"target": "T1, Estrogen receptor (Homo sapiens, UniProt P03372)", "T1 sequence (P03372 whole entry)": "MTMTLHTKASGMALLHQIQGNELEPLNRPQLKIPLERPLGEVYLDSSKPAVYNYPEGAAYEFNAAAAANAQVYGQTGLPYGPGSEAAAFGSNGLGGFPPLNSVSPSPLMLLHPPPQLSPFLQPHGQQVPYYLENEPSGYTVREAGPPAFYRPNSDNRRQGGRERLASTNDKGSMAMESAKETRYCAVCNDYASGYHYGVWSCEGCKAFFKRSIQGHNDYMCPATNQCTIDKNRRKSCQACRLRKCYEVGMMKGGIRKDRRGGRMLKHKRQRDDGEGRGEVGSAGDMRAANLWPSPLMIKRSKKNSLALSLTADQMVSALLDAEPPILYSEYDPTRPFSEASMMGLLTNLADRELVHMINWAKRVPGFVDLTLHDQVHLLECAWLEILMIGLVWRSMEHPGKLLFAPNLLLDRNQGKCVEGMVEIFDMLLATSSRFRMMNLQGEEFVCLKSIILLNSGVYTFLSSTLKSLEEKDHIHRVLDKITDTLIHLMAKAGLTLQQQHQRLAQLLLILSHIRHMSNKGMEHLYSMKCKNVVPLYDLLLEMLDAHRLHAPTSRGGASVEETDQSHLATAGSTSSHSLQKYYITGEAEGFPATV"}, "[3]": {"target": "T2, Progesterone receptor (Homo sapiens, UniProt P06401)", "T2 sequence (P06401 whole entry)": "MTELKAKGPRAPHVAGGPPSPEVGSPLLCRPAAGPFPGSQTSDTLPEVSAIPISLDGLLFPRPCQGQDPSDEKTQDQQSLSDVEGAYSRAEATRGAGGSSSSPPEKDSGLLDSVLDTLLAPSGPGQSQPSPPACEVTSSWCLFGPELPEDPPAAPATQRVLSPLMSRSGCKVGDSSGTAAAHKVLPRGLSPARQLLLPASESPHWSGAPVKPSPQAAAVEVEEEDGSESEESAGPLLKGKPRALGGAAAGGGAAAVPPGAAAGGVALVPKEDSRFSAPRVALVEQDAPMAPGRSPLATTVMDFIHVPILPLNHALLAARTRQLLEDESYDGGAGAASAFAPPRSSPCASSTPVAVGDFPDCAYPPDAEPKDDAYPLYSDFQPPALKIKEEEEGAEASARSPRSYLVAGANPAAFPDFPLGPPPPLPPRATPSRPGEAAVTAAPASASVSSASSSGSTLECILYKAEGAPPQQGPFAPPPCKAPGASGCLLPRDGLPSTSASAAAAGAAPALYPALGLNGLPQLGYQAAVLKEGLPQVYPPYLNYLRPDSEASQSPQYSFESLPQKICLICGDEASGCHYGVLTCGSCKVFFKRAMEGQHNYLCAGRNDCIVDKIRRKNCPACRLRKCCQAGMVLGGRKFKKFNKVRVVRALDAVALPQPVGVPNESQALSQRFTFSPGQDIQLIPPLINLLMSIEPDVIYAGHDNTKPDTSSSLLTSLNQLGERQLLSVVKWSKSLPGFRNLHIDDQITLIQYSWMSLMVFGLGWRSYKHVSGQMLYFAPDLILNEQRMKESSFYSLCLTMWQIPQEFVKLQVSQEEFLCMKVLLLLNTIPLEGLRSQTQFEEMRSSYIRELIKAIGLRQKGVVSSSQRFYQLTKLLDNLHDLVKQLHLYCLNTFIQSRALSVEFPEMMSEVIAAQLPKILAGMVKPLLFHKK"}, "[4]": {"target": "T3, D(4) dopamine receptor (Homo sapiens, UniProt P21917)", "T3 sequence (P21917 whole entry)": "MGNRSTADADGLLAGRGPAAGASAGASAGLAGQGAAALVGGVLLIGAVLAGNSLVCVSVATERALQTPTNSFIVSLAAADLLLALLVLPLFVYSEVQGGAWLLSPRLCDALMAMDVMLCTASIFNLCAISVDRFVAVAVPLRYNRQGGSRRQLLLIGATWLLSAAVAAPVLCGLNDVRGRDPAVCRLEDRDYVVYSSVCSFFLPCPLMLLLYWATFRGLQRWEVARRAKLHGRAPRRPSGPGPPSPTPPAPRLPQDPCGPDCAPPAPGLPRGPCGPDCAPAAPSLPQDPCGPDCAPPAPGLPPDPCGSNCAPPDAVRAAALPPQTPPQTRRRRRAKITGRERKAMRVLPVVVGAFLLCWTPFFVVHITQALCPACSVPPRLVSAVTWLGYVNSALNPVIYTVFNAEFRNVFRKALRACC"}, "[5]": {"target": "Glucagon receptor (Homo sapiens, UniProt P47871)", "sequence (P47871 whole entry)": "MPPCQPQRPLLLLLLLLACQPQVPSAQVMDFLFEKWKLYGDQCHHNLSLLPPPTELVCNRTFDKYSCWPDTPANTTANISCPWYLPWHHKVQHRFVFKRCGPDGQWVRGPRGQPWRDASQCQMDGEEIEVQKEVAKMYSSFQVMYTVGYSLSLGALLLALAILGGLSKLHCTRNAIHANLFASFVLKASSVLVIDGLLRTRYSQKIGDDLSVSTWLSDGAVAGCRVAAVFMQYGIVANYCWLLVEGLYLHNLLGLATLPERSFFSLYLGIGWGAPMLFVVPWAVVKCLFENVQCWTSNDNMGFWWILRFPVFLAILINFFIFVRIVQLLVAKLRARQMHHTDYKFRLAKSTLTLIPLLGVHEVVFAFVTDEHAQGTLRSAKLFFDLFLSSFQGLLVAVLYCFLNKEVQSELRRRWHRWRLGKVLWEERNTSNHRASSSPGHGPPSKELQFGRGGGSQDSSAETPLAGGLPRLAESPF"}, "[6]": {"target": "T4, Neuropeptide Y receptor type 2 (Homo sapiens, UniProt P49146)", "T4 sequence (P49146 whole entry)": "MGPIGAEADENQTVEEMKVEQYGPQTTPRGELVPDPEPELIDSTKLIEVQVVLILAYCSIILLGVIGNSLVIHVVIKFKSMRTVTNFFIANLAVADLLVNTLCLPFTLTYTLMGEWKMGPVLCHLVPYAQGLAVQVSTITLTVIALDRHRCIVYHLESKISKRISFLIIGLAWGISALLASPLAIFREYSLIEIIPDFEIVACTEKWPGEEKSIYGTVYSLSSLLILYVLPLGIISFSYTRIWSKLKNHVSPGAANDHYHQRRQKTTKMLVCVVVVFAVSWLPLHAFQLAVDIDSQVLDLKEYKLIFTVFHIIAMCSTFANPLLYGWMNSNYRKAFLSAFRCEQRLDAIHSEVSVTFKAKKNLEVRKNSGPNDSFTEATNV"}, "[7]": {"target": "Neurotensin receptor type 1 (Homo sapiens, UniProt P30989)", "sequence (P30989 whole entry)": "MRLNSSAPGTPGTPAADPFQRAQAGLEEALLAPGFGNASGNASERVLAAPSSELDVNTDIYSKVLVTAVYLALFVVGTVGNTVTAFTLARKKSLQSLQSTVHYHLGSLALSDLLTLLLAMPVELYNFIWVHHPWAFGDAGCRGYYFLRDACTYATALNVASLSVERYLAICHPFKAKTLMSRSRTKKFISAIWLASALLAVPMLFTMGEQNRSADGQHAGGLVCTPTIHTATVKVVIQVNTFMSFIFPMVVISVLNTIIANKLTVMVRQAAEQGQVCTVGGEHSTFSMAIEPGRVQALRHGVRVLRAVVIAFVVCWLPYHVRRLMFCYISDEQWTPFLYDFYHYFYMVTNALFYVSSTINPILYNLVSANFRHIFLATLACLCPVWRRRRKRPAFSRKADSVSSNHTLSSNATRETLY"}, "[8]": {"target": "T5, Alpha-1A adrenergic receptor (Homo sapiens, UniProt P35348)", "T5 sequence (P35348 whole entry)": "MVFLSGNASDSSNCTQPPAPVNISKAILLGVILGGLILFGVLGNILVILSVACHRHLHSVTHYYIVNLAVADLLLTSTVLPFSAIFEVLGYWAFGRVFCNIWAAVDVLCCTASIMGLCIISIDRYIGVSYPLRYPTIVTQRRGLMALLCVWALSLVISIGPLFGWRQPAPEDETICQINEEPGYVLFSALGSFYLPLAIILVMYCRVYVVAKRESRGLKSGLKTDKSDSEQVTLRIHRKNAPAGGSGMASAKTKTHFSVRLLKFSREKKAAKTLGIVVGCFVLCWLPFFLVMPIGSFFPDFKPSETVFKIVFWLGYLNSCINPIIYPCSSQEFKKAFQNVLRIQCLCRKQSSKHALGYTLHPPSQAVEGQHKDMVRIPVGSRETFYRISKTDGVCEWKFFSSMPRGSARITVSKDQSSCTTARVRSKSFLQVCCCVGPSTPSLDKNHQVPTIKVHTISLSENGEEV"}}, "data": [{"molecule": "THIMEROSAL", "values": [{"measurement": "AC50", "setting": "[1]", "result": "> 30", "unit": "µM"}]}, {"molecule": "CO[C@]12C[C@@H](COC(=O)c3cncc(Br)c3)CN(C)[C@@H]1Cc1cn(C)c3cccc2c13", "note": "[NICERGOLINE]", "values": [{"measurement": "AC50", "setting": "[1]", "result": "> 30", "unit": "µM"}]}, {"molecule": "NC(=O)OCC(COC(N)=O)c1ccccc1", "note": "[FELBAMATE]", "values": [{"measurement": "AC50", "setting": "[2]", "result": "> 10", "unit": "µM"}]}, {"molecule": "Cc1nnc2n1-c1ccc(Cl)cc1C(c1ccccc1Cl)=NC2", "note": "[TRIAZOLAM]", "values": [{"measurement": "AC50", "setting": "[3]", "result": "> 30", "unit": "µM"}]}, {"molecule": "O=C1C(O)=C([C@H]2CC[C@H](c3ccc(Cl)cc3)CC2)C(=O)c2ccccc21", "note": "[ATOVAQUONE]", "values": [{"measurement": "AC50", "setting": "[2]", "result": "> 30", "unit": "µM"}]}, {"molecule": "Fc1ccc(C(c2ccccc2)(c2ccccc2F)n2ccnc2)cc1", "note": "(stereo not given) [FLUTRIMAZOLE]", "values": [{"measurement": "AC50", "setting": "[2]", "result": "> 30", "unit": "µM"}]}, {"molecule": "COc1cccc(C2(O)CCCCC2CN(C)C)c1", "note": "(stereo not given) [TRAMADOL]", "values": [{"measurement": "AC50", "setting": "[4]", "result": "> 10000", "unit": "nM"}, {"measurement": "AC50", "setting": "[2]", "result": "> 30", "unit": "µM"}, {"measurement": "AC50", "setting": "[5]", "result": "> 30", "unit": "µM"}, {"measurement": "AC50", "setting": "[6]", "result": "> 30", "unit": "µM"}, {"measurement": "AC50", "setting": "[7]", "result": "> 30", "unit": "µM"}, {"measurement": "AC50", "setting": "[3]", "result": "> 30", "unit": "µM"}, {"measurement": "AC50", "setting": "[8]", "result": "> 10", "unit": "µM"}]}, {"molecule": "COc1ccc(CCNCC(O)COc2cccc(C)c2)cc1OC", "note": "(stereo not given) [BEVANTOLOL]", "values": [{"measurement": "AC50", "setting": "[2]", "result": "> 10", "unit": "µM"}]}, {"molecule": "Cc1c(OCC(F)(F)F)ccnc1C[S+]([O-])c1nc2ccccc2[nH]1", "note": "(stereo not given) [LANSOPRAZOLE]", "values": [{"measurement": "AC50", "setting": "[4]", "result": 2110, "unit": "nM"}, {"measurement": "AC50", "setting": "[5]", "result": "> 30", "unit": "µM"}, {"measurement": "AC50", "setting": "[6]", "result": "> 30", "unit": "µM"}, {"measurement": "AC50", "setting": "[7]", "result": "> 30", "unit": "µM"}, {"measurement": "AC50", "setting": "[3]", "result": "> 30", "unit": "µM"}, {"measurement": "AC50", "setting": "[8]", "result": "> 10", "unit": "µM"}]}]}
